Results reported in patent US11912713B2, “7-membered aza-heterocyclic containing delta-opioid receptor modulating compounds, methods of using and making the same” (Trevena, Inc., priority 2017, dated 2024).

Key:
[1] = tested on: adult male C57 mice; experiment: Tail suspension test (TST); assay type: in vivo, mouse
Description: The experiments were performed using adult male C57 mice (6-10 weeks of age, 20-30 g, Hilltop Lab, PA). The mice were housed in standard rodent cages with stainless steel mesh wire bar lids in groups of 4 with controlled temperature and light cycle (6:00 a.m.-6:00 p.m.). Animals were given free access to food (Harlan Teklad Global 18% protein (Madison, WI)) and water during a minimum 2-day habituation period to the laboratory. Animals that were used in the study were handled, housed, and sacrificed (using compressed CO2) in accord with the current NIH guidelines regarding the use and care of laboratory animals, and all applicable local, state, and federal regulations and guidelines. Animals are identified by cage number, and by markings applied to the proximal tip of the tail using a permanent marker. Group sizes (n=8, and therefore 30-50 animals per study) provide reliable estimates of treatment effects, and this species and strain of mouse has been recognized as appropriate for pharmacology studies.
To measure efficacy of the compounds the compounds were tested using a tail suspension test. The tail suspension test is a behavioral test used to evaluate the efficacy of antidepressant drugs in rodents. In the TST, mice (n=8/group) were suspended by the tail with tape approximately 30-50 cm above the lab bench. Mice are positioned such that the base of their tail is perpendicular to the lab bench. Each mouse is given 1 trial that last 6 minutes. The total duration of immobility is calculated as the percentage of time that the mouse is immobile. The duration of immobility is the main parameter measured. This is calculated from the cumulated time during which the animals is absent of initiated movements including passive swaying. When antidepressant drugs are administered, immobility is decreased by a variety of classes of antidepressant drugs. One or more of the compounds show antidepressant activity.

[2] = molecular target: T1, delta-opioid receptor (hDOR) (Homo sapiens, UniProt P41143); experiment: β-Arrestin recruitment assay (PathHunter); assay type: cell-based
Description: (§1) Clonal stable lines were subsequently selected under G418.
(§2) Cell lines were grown adherently in Minimum Essential Media (Cellgro cat #10-010-CM) containing 10% fetal bovine serum (Hyclone cat #SH30071.03), 4 mM glutamine (Cellgro cat #25-005-CI), 150 ug/ml hygromycin B (Cellgro cat #30-240-CR), 150 ug/ml G418 (Cellgro cat #30-234-CR), and 50 u/50 ug penicillin/streptomycin (Lonza cat #17-603E). Prior to the assay cells were removed from the flasks with CellStripper (Cellgro cat #25-056-CI), repeatedly pipetted to disperse cells, and spun at low speed for 5 min at room temperature. Cells were then resuspended at 250,000 cells/ml in growth media and plated at 5,000 cells/well in 384 well plates (Greiner part #784080). Plates were incubated overnight at 37° C., 5% CO2 in a humidified incubator.
Receptor mediated beta-arrestin recruitment was determined using the DiscoveRx β-arrestin PathHunter Detection kit (cat #93-0001). In this system, β-Arrestin is fused to an N-terminal deletion mutant of β-galactosidase (termed the enzyme acceptor of EA) and the GPCR of interest is fused to a smaller (42 amino acids), weakly complementing fragment termed ProLink™. […] Following a 60 minute incubation at 37° C. the components of the DiscoveRx β-arrestin PathHunter Detection kit were added as directed and the plates were read after 1 hour on a BMG PheraStar plate reader.

[3] = tested on: mu- and kappa-opioid receptors; conditions: versus mu- and kappa-opioid receptors
Description: Plasmids encoding delta-opioid receptor (Accession NP_000902), mu-opioid receptor (Accession NP_000905) and kappa-opioid receptor (Accession Assession NP_000903) were generated in the pCMV-Prolink backbone and transfected into an EA-arrestin parental human embryonic kidney (HEK-293) cell line from DiscoveRx Corporation. Clonal stable lines were subsequently selected under G418.
The values are normalized against DPDPE ([D-Pen2,5]Enkephalin, [D-Pen2,D-Pen5]Enkephalin), which is a known agonist of the receptor. Compound selectivity was also evaluated by testing compounds on the mu- and kappa-opioid receptors, the values from which were normalized against DAMGO ([D-Ala2, N-Me-Phe4, Gly5-ol]-Enkephalin acetate salt) and U69,593, respectively.

[4] = molecular target: T1, delta-opioid receptor (hDOR); experiment: cAMP assay (receptor G-protein mediated response); assay type: cell-based; conditions: efficacy, normalized against DPDPE
Description: as §1, §2
Receptor G-protein mediated responses were determined by measuring changes in intracellular cAMP using CisBio HTRF cAMP HiRange kit (cat #62AM6PEJ) based on time-resolved fluorescence resonance energy transfer (TR-FRET). […] Following a 30 minute incubation at 37° C. the components of the cAMP HiRange kit were added as directed and the plates were read after 1 hour on a BMG PheraStar plate reader. Responses were measured as the ratio of fluorescence at 665 nm/620 nm per manufacturer's instructions.

T1 sequence (P41143 whole entry): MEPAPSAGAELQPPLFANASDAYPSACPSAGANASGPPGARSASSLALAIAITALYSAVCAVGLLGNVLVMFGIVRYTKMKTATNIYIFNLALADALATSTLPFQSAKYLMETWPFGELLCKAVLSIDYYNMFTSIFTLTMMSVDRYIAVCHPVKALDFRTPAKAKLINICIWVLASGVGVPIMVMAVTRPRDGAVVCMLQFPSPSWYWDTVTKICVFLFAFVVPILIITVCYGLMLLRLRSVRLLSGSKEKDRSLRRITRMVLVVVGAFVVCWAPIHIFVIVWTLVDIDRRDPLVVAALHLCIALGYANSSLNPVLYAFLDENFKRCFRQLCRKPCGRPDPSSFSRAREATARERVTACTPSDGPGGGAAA

**Q.** Which “Active TST Dose” value ([1]; route sc) does the source give for CCCN1CC[C@@H](COc2ccc3c(c2)C(=O)NC3)[C@H](c2ccc(OC)cc2)CC1 (racemic) [Compound C0004, (±)-6-{((trans)-5-(4-methoxyphenyl)-1-propylazepan-4-yl]methoxy}-2,3-dihydro-1H-isoindol-1-one] here?
**A.** Its value is at most 30 mg/kg.

**Q.** Which “Active TST Dose” value ([1]; route sc) does the source give for CCCN1C2CCC1CC(c1ccc(OC)cc1)=C(COc1ccc3c(c1)C(=O)NC3)C2 (racemic) [Compound C0066, 6-{[4-(4-methoxyphenyl)-9-propyl-9-azabicyclo[4.2.1]non-3-en-3-yl]methoxy}-2,3-dihydro-1H-isoindol-1-one] here?
**A.** Its value is at most 10 mg/kg.

**Q.** How did the “Active TST Dose” value ([1]; route sc) turn out when CCCN1C2CCC1CC(c1ccc(OC)cc1)C(CCc1ccc3c(c1)C(=O)NC3)C2 (stereo not drawn) [Compound C0084, 6-{2-((cis)-4-(4-methoxyphenyl)-9-propyl-9-azabicyclo[4.2.1]nonan-3-yl]ethyl}-2,3-dihydro-1H-(trans)-isoindol-1-one] was run?
**A.** The value was at most 30 mg/kg.

**Q.** COc1ccc(C2CCN(CCc3ccccc3)C(C)CC2COc2ccc3c(c2)C(=O)NC3)cc1 (stereo not drawn) [Compound C0457, 6-{[(trans)-5-(4-methoxyphenyl)-2-methyl-1-(2-phenylethyl)azepan-4-yl]methoxy}-2,3-dihydro-1H-isoindol-1-one] was tested. Which “Active TST Dose” value ([1]; route po) did it give?
**A.** The value was at most 60 mg/kg.

**Q.** What does the source list for Fc1ccc([C@@H]2CCNC[C@H]2COc2ccc3c(c2)OCO3)cc1 [Paroxetine]?
**A.** hDOR B Span ([2]; efficacy, normalized against DPDPE): <100; EC50 ([2]; β-arrestin recruitment, HEK-293 cells, read-out: hDOR B pEC50 (converted)): > 1000 nM; selectivity for the delta-opioid receptor [3]: non-selectivity; hDOR G Span [4]: <100
